Assay results as given in patent publication US20240116985A1, “STAPLED PEPTIDES AND METHODS THEREOF” (priority 2020, published 2024).

Assay: CHI Log D procedure
Type: physicochemical
Details: for CHI Log D: pH 7.4; for chromatographic logD: pH 7.4, CHI Log D

Row | Structure (SMILES) | CHI Log D | chromatographic logD
1 | CC(=O)N1CCC[C@]12CC=CCCCC1(CCCC=CCCCCCC[C@@](C)(C(=O)N[C@@H](Cc3ccccc3)C(=O)N[C@@](C)(Cc3c[nH]c4ccccc34)C(=O)N[C@@H](CCC(N)=O)C(N)=O)NC(=O)[C@H](C(C)C)NC(=O)[C@H](Cc3ccccc3)NC(=O)[C@H](C)NC(=O)[C@H](C)NC(=O)[C@H](CCC(=O)O)NC(=O)[C@H](CC(=O)O)NC1=O)NC(=O)[C@H](C)NC(=O)[C@H](CC(=O)O)NC2=O (stereo partly drawn) [I-137, Ac-PL3-Asp-Ala-B5-Asp-Glu-Ala-Ala-Phe-Val-S8-Phe-aMeW-Gln-NH2] | 2.174 | 
2 | CC(=O)N1CCC[C@]12CC=CCCCC1(CCCC=CCCCCCC[C@@](C)(C(=O)N[C@@H](Cc3ccccc3)C(=O)NC(Cc3cccc4cc(F)ccc34)C(=O)N[C@@H](CCC(N)=O)C(N)=O)NC(=O)[C@H](C(C)C)NC(=O)[C@H](Cc3ccccc3)NC(=O)[C@H](C)NC(=O)[C@H](C)NC(=O)[C@H](CCC(=O)O)NC(=O)[C@H](CC(=O)O)NC1=O)NC(=O)[C@H](C)NC(=O)[C@H](CC(=O)O)NC2=O (stereo partly drawn) [I-142, Ac-PL3-Asp-Ala-B5-Asp-Glu-Ala-Ala-Phe-Val-S8-Phe-6F1NapA-Gln-NH2] |  | 2.18
3 | CC(=O)N1CCC[C@]12CC=CCCCC1(CCCC=CCCCCCC[C@@](C)(C(=O)N[C@@H](Cc3ccccc3)C(=O)N[C@@H](Cc3ccc(-c4ccccc4)cc3)C(=O)N[C@@H](CCC(N)=O)C(N)=O)NC(=O)[C@H](C(C)C)NC(=O)[C@H](Cc3ccccc3)NC(=O)[C@H](C)NC(=O)[C@H](C)NC(=O)[C@H](CCC(=O)O)NC(=O)[C@H](CC(=O)O)NC1=O)NC(=O)[C@H](C)NC(=O)[C@H](CC(=O)O)NC2=O (stereo partly drawn) [I-145, Ac-PL3-Asp-Ala-B5-Asp-Glu-Ala-Ala-Phe-Val-S8-Phe-Bip-Gln-NH2] |  | 2.28
4 | CC[C@H](C)[C@H](NC(=O)[C@H](CC(=O)O)NC(C)=O)C(=O)N[C@]1(C)CCN(C)C(=O)OCC=CCCCCC[C@@](C)(C(=O)N[C@@H](Cc2ccccc2)C(=O)N[C@@H](Cc2c[nH]c3ccccc23)C(=O)N[C@@H](Cc2c[nH]cn2)C(N)=O)NC(=O)[C@H](CCC(N)=O)NC(=O)[C@H](Cc2ccccc2)NC(=O)[C@H](C)NC(=O)[C@H](C)NC(=O)[C@H](CC(=O)O)NC(=O)[C@H](CC(=O)O)NC1=O [I-149, Ac-Asp-Ile-RdN-Asp-Asp-Ala-Ala-Phe-Gln-S7-Phe-Trp-His-NH2] | 1.27 | 
5 | CC[C@H](C)[C@H](NC(=O)[C@H](CC(=O)O)NC(=O)[C@H](C)NC(C)=O)C(=O)N[C@]1(C)CCN(C)C(=O)OCC=CCCCCC[C@@](C)(C(=O)N[C@@H](Cc2ccccc2)C(=O)N[C@@H](Cc2c[nH]c3ccccc23)C(=O)N[C@@H](C)C(N)=O)NC(=O)[C@H](C)NC(=O)[C@H](Cc2ccccc2)NC(=O)[C@H](C)NC(=O)[C@H](C)NC(=O)[C@H](CCC(=O)O)NC(=O)[C@H](CC(=O)O)NC1=O [I-154, Ac-Ala-Asp-Ile-RdN-Asp-Glu-Ala-Ala-Phe-Ala-S7-Phe-Trp-Ala-NH2] | 1.426 | 
6 | CC(=O)NC(C)(C)C(=O)N[C@@H](CC(=O)O)C(=O)N[C@@H](C)C(=O)N[C@]1(C)CCCCCCC=CCOC(=O)N2CC[C@@](C(=O)N[C@@H](Cc3ccccc3)C(=O)N[C@@H](Cc3c[nH]c4ccccc34)C(=O)N[C@@H](CCC(N)=O)C(N)=O)(C2)NC(=O)[C@H](C(C)C)NC(=O)[C@H](Cc2ccccc2)NC(=O)[C@H](C)NC(=O)[C@H](C)NC(=O)[C@H](CCC(=O)O)NC(=O)[C@H](CC(=O)O)NC1=O [I-157, Ac-Aib-Asp-Ala-R8-Asp-Glu-Ala-Ala-Phe-Val-PyrS-Phe-Trp-Gln-NH2] | 1.202 | 
7 | CC(=O)NC(C)(C)C(=O)N[C@@H](CC(=O)O)C(=O)N[C@@H](C)C(=O)N[C@]1(C)CCCCCCC=CCOC(=O)N2CC[C@@](C(=O)N[C@@H](Cc3ccccc3)C(=O)N[C@@H](Cc3c[nH]c4ccccc34)C(=O)NC(C)(C)C(N)=O)(C2)NC(=O)[C@H](C(C)C)NC(=O)[C@H](Cc2ccccc2)NC(=O)[C@H](C)NC(=O)[C@H](C)NC(=O)[C@H](CCC(=O)O)NC(=O)[C@H](CC(=O)O)NC1=O [I-159, Ac-Aib-Asp-Ala-R8-Asp-Glu-Ala-Ala-Phe-Val-PyrS-Phe-Trp-Aib-NH2] | 1.452 | 
8 | CC(=O)N[C@@H](Cc1ccccc1)C(=O)N[C@@H](CC(=O)O)C(=O)N[C@@H](C)C(=O)N[C@]1(C)CCCCCCC=CCOC(=O)N2CC[C@@](C(=O)N[C@@H](Cc3ccccc3)C(=O)N[C@@H](Cc3c[nH]c4ccccc34)C(=O)N[C@@H](CCC(N)=O)C(N)=O)(C2)NC(=O)[C@H](CO)NC(=O)[C@H](Cc2ccccc2)NC(=O)[C@H](C)NC(=O)[C@H](C)NC(=O)[C@H](CC(=O)O)NC(=O)[C@H](CC(=O)O)NC1=O [I-163, Ac-Phe-Asp-Ala-R8-Asp-Asp-Ala-Ala-Phe-Ser-PyrS-Phe-Trp-Gln-NH2] | 1.29 | 

Further lines, results first:

Row | CHI Log D | chromatographic logD | Structure (SMILES)
9 | 1.359 |  | CC(=O)N[C@@H](Cc1ccccc1)C(=O)N[C@@H](CC(=O)O)C(=O)N[C@@H](C)C(=O)N[C@]1(C)CCCCCCC=CCOC(=O)N2CC[C@@](C(=O)N[C@@H](Cc3ccccc3)C(=O)N[C@@H](Cc3c[nH]c4ccccc34)C(=O)N[C@@H](CCC(N)=O)C(N)=O)(C2)NC(=O)[C@H](CO)NC(=O)[C@H](Cc2ccccc2)NC(=O)[C@H](C)NC(=O)[C@H](C)NC(=O)[C@H](CC(=O)O)NC(=O)[C@H](CC(=O)O)NC1=O [I-164, Ac-Phe-Asp-Ala-R8-Asp-Asp-Ala-Ala-Phe-Ser-PyrS-Phe-Trp-Gln-NH2]
10 | 2.138 |  | CC(=O)N1CCC[C@]12CC=CCCCC1(CCCC=CCCCCCC[C@@](C)(C(=O)N[C@@H](Cc3ccccc3)C(=O)N[C@@H](Cc3c[nH]c4ccc(C5CC5)cc34)C(=O)N[C@@H](CCC(N)=O)C(N)=O)NC(=O)[C@H](C(C)C)NC(=O)[C@H](Cc3ccccc3)NC(=O)[C@H](C)NC(=O)[C@H](C)NC(=O)[C@H](CCC(=O)O)NC(=O)[C@H](CC(=O)O)NC1=O)NC(=O)[C@H](C)NC(=O)[C@H](CC(=O)O)NC2=O (stereo partly drawn) [I-170, Ac-PL3-Asp-Ala-B5-Asp-Glu-Ala-Ala-Phe-Val-S8-Phe-5CpW-Gln-NH2]
11 |  | 2.21 | CC(=O)N1CCC[C@]12CC=CCCCC1(CCCC=CCCCCCC[C@@](C)(C(=O)N[C@@H](Cc3c(F)c(F)c(F)c(F)c3F)C(=O)N[C@@H](Cc3c[nH]c4ccccc34)C(=O)N[C@@H](CCC(N)=O)C(N)=O)NC(=O)[C@H](C(C)C)NC(=O)[C@H](Cc3ccccc3)NC(=O)[C@H](C)NC(=O)[C@H](C)NC(=O)[C@H](CCC(=O)O)NC(=O)[C@H](CC(=O)O)NC1=O)NC(=O)[C@H](C)NC(=O)[C@H](CC(=O)O)NC2=O (stereo partly drawn) [I-183, Ac-PL3-Asp-Ala-B5-Asp-Glu-Ala-Ala-Phe-Val-S8-Pff-Trp-Gln-NH2]
12 |  | 2.98 | CC(=O)N1CCC[C@]12CC=CCCCC1(CCCC=CCCCCCC[C@@](C)(C(=O)N[C@@H](Cc3ccccc3)C(=O)N[C@@H](Cc3c[nH]c4ccccc34)C(=O)N[C@@H](CCC(N)=O)C(N)=O)NC(=O)[C@H](C(C)C)NC(=O)[C@H](Cc3ccccc3)NC(=O)[C@H](C)NC(=O)[C@H](C)NC(=O)[C@H](CCc3ccccc3)NC(=O)[C@H](CC(=O)O)NC1=O)NC(=O)[C@H](C)NC(=O)[C@H](CC(=O)O)NC2=O (stereo partly drawn) [I-195, Ac-PL3-Asp-Ala-B5-Asp-hPhe-Ala-Ala-Phe-Val-S8-Phe-Trp-Gln-NH2]
13 | 3.711 |  | CC(=O)N1CCC[C@]12CC=CCCCC1(CCCC=CCCCCCC[C@@](C)(C(=O)N[C@@H](Cc3ccccc3)C(=O)N[C@@H](Cc3c[nH]c4ccccc34)C(=O)N[C@@H](CCC(N)=O)C(N)=O)NC(=O)[C@H](C(C)C)NC(=O)[C@H](Cc3ccccc3)NC(=O)[C@H](C)NC(=O)[C@H](C)NC(=O)[C@H](CCC(=O)O)NC(=O)[C@H](CCc3ccccc3)NC1=O)NC(=O)[C@H](C)NC(=O)[C@H](CC(=O)O)NC2=O (stereo partly drawn) [I-196, Ac-PL3-Asp-Ala-B5-hPhe-Glu-Ala-Ala-Phe-Val-S8-Phe-Trp-Gln-NH2]
14 |  | 2.62 | CC(=O)N1CCC[C@]12CC=CCCCC1(CCCC=CCCCCCC[C@@](C)(C(=O)N[C@@H](Cc3ccccc3)C(=O)N[C@@H](Cc3c[nH]c4ccccc34)C(=O)N[C@@H](CCC(N)=O)C(N)=O)NC(=O)[C@H](C(C)C)NC(=O)[C@H](Cc3ccccc3)NC(=O)[C@H](C)NC(=O)[C@H](C)NC(=O)[C@H](CCC(=O)O)NC(=O)[C@H](CC(=O)O)NC1=O)NC(=O)[C@H](C)NC(=O)[C@H](Cc1ccc(O)cc1)NC2=O (stereo partly drawn) [I-202, Ac-PL3-Tyr-Ala-B5-Asp-Glu-Ala-Ala-Phe-Val-S8-Phe-Trp-Gln-NH2]
15 |  | 3.09 | CC(=O)N1CCC[C@]12CC=CCCCC1(CCCC=CCCCCCC[C@@](C)(C(=O)N[C@@H](Cc3ccccc3)C(=O)N[C@@H](Cc3c[nH]c4ccccc34)C(=O)N[C@@H](CCC(N)=O)C(N)=O)NC(=O)[C@H](C(C)C)NC(=O)[C@H](Cc3ccccc3)NC(=O)[C@H](C)NC(=O)[C@H](C)NC(=O)[C@H](CCC(=O)O)NC(=O)[C@H](CC(=O)O)NC1=O)NC(=O)[C@H](C)NC(=O)[C@H](Cc1cccc(C)c1)NC2=O (stereo partly drawn) [I-203, Ac-PL3-3MeF-Ala-B5-Asp-Glu-Ala-Ala-Phe-Val-S8-Phe-Trp-Gln-NH2]
16 |  | 2.98 | CC(=O)N1CCC[C@]12CC=CCCCC1(CCCC=CCCCCCC[C@@](C)(C(=O)N[C@@H](Cc3ccccc3)C(=O)N[C@@H](Cc3c[nH]c4ccccc34)C(=O)N[C@@H](CCC(N)=O)C(N)=O)NC(=O)[C@H](C(C)C)NC(=O)[C@H](Cc3ccccc3)NC(=O)[C@H](C)NC(=O)[C@H](C)NC(=O)[C@H](CCC(=O)O)NC(=O)[C@H](CC(=O)O)NC1=O)NC(=O)[C@H](C)NC(=O)[C@H](Cc1cccc(F)c1)NC2=O (stereo partly drawn) [I-204, Ac-PL3-3FF-Ala-B5-Asp-Glu-Ala-Ala-Phe-Val-S8-Phe-Trp-Gln-NH2]
17 |  | 3.84 | CCCC[C@@H]1NC(=O)C2(CCCC=CCCCCCC[C@@](C)(C(=O)N[C@@H](Cc3ccccc3)C(=O)N[C@@H](Cc3c[nH]c4ccccc34)C(=O)N[C@@H](CCC(N)=O)C(N)=O)NC(=O)[C@H](C(C)C)NC(=O)[C@H](Cc3ccccc3)NC(=O)[C@H](C)NC(=O)[C@H](C)NC(=O)[C@H](CCC(=O)O)NC1=O)CCCC=CC[C@]1(CCCN1C(C)=O)C(=O)N[C@@H](CC(=O)O)C(=O)N[C@@H](C)C(=O)N2 (stereo partly drawn) [I-205, Ac-PL3-Asp-Ala-B5-nLeu-Glu-Ala-Ala-Phe-Val-S8-Phe-Trp-Gln-NH2]
18 |  | 2.82 | CC(=O)N1CCC[C@]12CC=CCCCC1(CCCC=CCCCCCC[C@@](C)(C(=O)N[C@@H](Cc3ccccc3)C(=O)N[C@@H](Cc3c[nH]c4ccccc34)C(=O)N[C@@H](CCC(N)=O)C(N)=O)NC(=O)[C@H](C(C)C)NC(=O)[C@H](Cc3ccccc3)NC(=O)[C@H](C)NC(=O)[C@H](C)NC(=O)[C@H](CCC(=O)O)NC(=O)[C@H](Cc3cccnc3)NC1=O)NC(=O)[C@H](C)NC(=O)[C@H](CC(=O)O)NC2=O (stereo partly drawn) [I-213, Ac-PL3-Asp-Ala-B5-3pyrA-Glu-Ala-Ala-Phe-Val-S8-Phe-Trp-Gln-NH2]
